Data on 13 compounds can be found in PubChem BioAssay (NCI).

Test systems include SF-295 CNS; SK-MEL-5 melanoma; UACC-257 melanoma; HCT-15 colon; SN12C renal; OVCAR-3 ovarian; OVCAR-8 ovarian; MDA-MB-435; SNB-75 CNS; MDA-MB-231 breast.
What all share (assay): DTP human tumour cell line panel, 48 h

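Results reflect a 48-hour exposure of cells in 96-well plates to compound at five concentrations. TGI marks complete inhibition of growth.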 A value given as a limit tells only on which side of the number the result lay.

By TGI is commonly meant the concentration giving total growth inhibition. For the compound `Cc1cccc2c1C(=O)[C@@](C)([C@]1(C)Nc3cccc(C)c3C1=O)N2`, the TGI in the assay on SF-295 CNS, with SK-MEL-5 melanoma, in the assay with UACC-257 melanoma, in the assay on HCT-15 colon, with SN12C renal and in the assay on OVCAR-3 ovarian was over 100 µM each time. Moreover, the TGI with OVCAR-8 ovarian, with MDA-MB-435, in the assay with SNB-75 CNS and with MDA-MB-231 breast was over 100 µM in each case.
For the compound `OC(O)(C(F)(F)F)C(F)(F)F`, the TGI with SF-295 CNS, with SK-MEL-5 melanoma, with UACC-257 melanoma, with HCT-15 colon, with SN12C renal and in the assay with OVCAR-3 ovarian was over 100 µM throughout. Moreover, the TGI in the assay with OVCAR-8 ovarian, with MDA-MB-435, with SNB-75 CNS and in the assay on MDA-MB-231 breast was over 100 µM each time.
On to `c1ccc(CNc2ncnc3n[nH]nc23)cc1`, for which the TGI in the assay on SF-295 CNS, with SK-MEL-5 melanoma, with UACC-257 melanoma, in the assay with HCT-15 colon, in the assay on SN12C renal and with OVCAR-3 ovarian was over 100 µM each time. For the same compound, the TGI in the assay on OVCAR-8 ovarian, with MDA-MB-435, with SNB-75 CNS and in the assay with MDA-MB-231 breast was over 100 µM each time.
For `C=C1C(=O)O[C@H]2C3C(=C(C)CC[C@@H]12)C(=O)[C@@H]1OC31C` (some centres not stated), the total growth inhibition concentration (TGI) with SF-295 CNS stood at 27.3 µM; in the assay on SK-MEL-5 melanoma, 6.11 µM; with UACC-257 melanoma, 5.98 µM; in the assay on HCT-15 colon, 3.16 µM; with SN12C renal it was 3.18 µM; with OVCAR-3 ovarian it was 4.38 µM. Moreover, the TGI with OVCAR-8 ovarian is 5.42 µM; in the assay on MDA-MB-435, 7.13 µM; in the assay with SNB-75 CNS, 6.57 µM; in the assay with MDA-MB-231 breast, 8.08 µM.
For `Cn1c(=O)c2[nH]c(CCC(=O)O)nc2n(C)c1=O`, the total growth inhibition concentration (TGI) in the assay with SF-295 CNS, in the assay with SK-MEL-5 melanoma, in the assay with UACC-257 melanoma, in the assay on HCT-15 colon, with SN12C renal and in the assay with OVCAR-3 ovarian was over 100 µM each time. For the same compound, the TGI in the assay with OVCAR-8 ovarian, in the assay on MDA-MB-435, in the assay with SNB-75 CNS and in the assay on MDA-MB-231 breast was over 100 µM throughout.
Consider `CN(C)c1ccc(/C=C2\C[C@H]3[C@@H]4CCc5cc(O)ccc5[C@H]4CC[C@]3(C)C2=O)cc1`, for which the TGI with SF-295 CNS, in the assay with SK-MEL-5 melanoma, in the assay with UACC-257 melanoma, with HCT-15 colon, in the assay on OVCAR-3 ovarian and with OVCAR-8 ovarian was over 100 µM each time. For the same compound, the TGI in the assay with MDA-MB-435 was over 100 µM; in the assay with SNB-75 CNS it was over 100 µM; in the assay on MDA-MB-231 breast, 69 µM.
As for `CCC1CCC2c3c([nH]c4ccccc34)C3C(=O)N(c4ccc(OC)cc4)C(=O)C3C2C1` (configuration not stated), the TGI is 68.1 µM with SF-295 CNS; over 100 µM in the assay with SK-MEL-5 melanoma; over 100 µM in the assay with UACC-257 melanoma; over 100 µM with HCT-15 colon; over 100 µM with SN12C renal; 41.9 µM with OVCAR-3 ovarian. Also, the TGI in the assay on OVCAR-8 ovarian was over 100 µM; in the assay with MDA-MB-435, over 100 µM; in the assay with SNB-75 CNS it was 41.1 µM; with MDA-MB-231 breast, over 100 µM.
On to `Oc1ccc2ccccc2c1OCc1nnc(CCCCCCCCc2nnc(COc3c(O)ccc4ccccc34)o2)o1`, for which the TGI in the assay with SF-295 CNS, in the assay on SK-MEL-5 melanoma, in the assay with UACC-257 melanoma, in the assay with HCT-15 colon, in the assay on SN12C renal and in the assay with MDA-MB-435 was over 100 µM throughout. Further, the TGI in the assay on SNB-75 CNS and with MDA-MB-231 breast was over 100 µM each time.
Consider `COc1cc(S(=O)(=O)N/N=C/c2cc(Br)c(O)c(OC)c2)c(OC)cc1NC(C)=O`, for which the TGI in the assay on SF-295 CNS, in the assay with SK-MEL-5 melanoma, in the assay on UACC-257 melanoma, in the assay with HCT-15 colon, in the assay on SN12C renal and in the assay on OVCAR-3 ovarian was over 100 µM throughout. For the same compound, the total growth inhibition concentration (TGI) with OVCAR-8 ovarian, with MDA-MB-435, with SNB-75 CNS and in the assay on MDA-MB-231 breast was over 100 µM each time.
`COc1cc(-c2[o+]c3cc(O)cc(OC4OC(CO)C(O)C(O)C4O)c3cc2OC2OC(CO)C(O)C(O)C2O)cc(OC)c1O` (configuration not stated): the TGI with SF-295 CNS, with SK-MEL-5 melanoma, in the assay with UACC-257 melanoma, in the assay on HCT-15 colon, with SN12C renal and in the assay on OVCAR-3 ovarian was over 100 µM each time. For the same compound, the TGI with OVCAR-8 ovarian, in the assay with MDA-MB-435, in the assay on SNB-75 CNS and in the assay on MDA-MB-231 breast was over 100 µM throughout.
Consider `COc1cc2c(cc1O)CC[C@@H]1C2CC[C@@]2(C)C1CC[C@@H]2O` (some centres not stated), for which the TGI in the assay on SF-295 CNS was 16.5 µM; in the assay with SK-MEL-5 melanoma, 36.7 µM; in the assay on UACC-257 melanoma it was over 100 µM; in the assay on HCT-15 colon, 49 µM; in the assay with SN12C renal, over 82 µM; in the assay on OVCAR-3 ovarian, 7.17 µM. The TGI in the assay with OVCAR-8 ovarian is 39.4 µM; in the assay with MDA-MB-435, 0.927 µM; in the assay with SNB-75 CNS it was 22.1 µM; with MDA-MB-231 breast, over 87.1 µM.
For `CCOC(=O)c1cc(-c2ccn(C(C)=O)c2)c(-c2cc(C)co2)[nH]1`, the TGI in the assay on SF-295 CNS, with SK-MEL-5 melanoma, in the assay with UACC-257 melanoma, in the assay with HCT-15 colon, in the assay with SN12C renal and with OVCAR-3 ovarian was over 100 µM in each case. Besides, the TGI with OVCAR-8 ovarian, in the assay with MDA-MB-435, in the assay with SNB-75 CNS and with MDA-MB-231 breast was over 100 µM throughout.
Regarding `Cn1c(=O)c2sc3cc4c(cc3c2c2ccccc21)sc1c(=O)n(C)c2ccccc2c14`, the TGI in the assay with SF-295 CNS was 42.6 µM; with SK-MEL-5 melanoma, over 100 µM; in the assay with UACC-257 melanoma, over 100 µM; with HCT-15 colon, over 100 µM; in the assay with SN12C renal, over 100 µM; with OVCAR-3 ovarian, over 100 µM. The TGI was over 100 µM in the assay on OVCAR-8 ovarian, over 100 µM in the assay with MDA-MB-435, 93.6 µM in the assay on SNB-75 CNS and 36.8 µM in the assay with MDA-MB-231 breast.
